Reference: ChEMBL document CHEMBL2311302, “Synthesis and evaluation of 5'-modified thymidines and 5-hydroxymethyl-2'-deoxyuridines as Mycobacterium tuberculosis thymidylate kinase inhibitors” (Bioorg Med Chem, 2013)
Activity calls are given as the source filed them. No cut-off for these calls is given here.

Legend:
[1] = target: T1, Thymidylate kinase (Mycobacterium tuberculosis) (UniProt P9WKE1); assay: Inhibition of Mycobacterium tuberculosis thymidine monophosphate kinase at 2.4 mM by enzyme-coupling based spectrophotometric assay
T1 sequence (whole entry): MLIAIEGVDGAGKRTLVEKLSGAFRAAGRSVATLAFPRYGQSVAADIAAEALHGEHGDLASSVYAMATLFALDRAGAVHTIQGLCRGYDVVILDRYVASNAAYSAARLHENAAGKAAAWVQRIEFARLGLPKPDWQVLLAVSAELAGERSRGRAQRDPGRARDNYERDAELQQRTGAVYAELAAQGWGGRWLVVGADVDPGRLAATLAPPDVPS

Thymidylate kinase = target: T2, Thymidylate kinase (Mycobacterium tuberculosis, UniProt P9WKE1); assay: Inhibition of Mycobacterium tuberculosis thymidine monophosphate kinase by enzyme-coupling based spectrophotometric assay
T2 sequence (P9WKE1 whole entry): T1 sequence (whole entry)

[2] = target: T1, Thymidylate kinase (Mycobacterium tuberculosis); assay: Inhibition of Mycobacterium tuberculosis thymidine monophosphate kinase at 2.6 mM by enzyme-coupling based spectrophotometric assay

Q: Which inhibition [1] does the source give for O=c1[nH]c(=O)n([C@H]2C[C@H](O)[C@@H](CCc3nnn[nH]3)O2)cc1CO here?
A: inactive

Q: Which Ki (Thymidylate kinase) does the source give for Cc1cn([C@H]2C[C@H](O)[C@@H](CCS(C)(=O)=O)O2)c(=O)[nH]c1=O here?
A: 340 µM

Q: Which Ki (Thymidylate kinase) does the source give for Cc1cn([C@H]2C[C@H](O)[C@@H](CCc3nnn[nH]3)O2)c(=O)[nH]c1=O here?
A: 70 µM

Q: With N#CCC[C@H]1O[C@@H](n2cc(CO)c(=O)[nH]c2=O)C[C@@H]1O as the compound, how does the inhibition [2] read?
A: inactive

Q: CNS(=O)(=O)CC[C@H]1O[C@@H](n2cc(C)c(=O)[nH]c2=O)C[C@@H]1O was tested. Which Ki (Thymidylate kinase) did it give?
A: 240 µM

Q: Which Ki (Thymidylate kinase) does the source give for Cc1cn([C@H]2C[C@H](O)[C@@H](CCC#N)O2)c(=O)[nH]c1=O here?
A: 48 µM
